# According to BindingDB's records for doi:10.1016/j.bmc.2007.10.027 (Research Triangle Institute, 2008):
# Biological target: Neuronal acetylcholine receptor subunit alpha-4 (Rattus norvegicus, UniProt P09483)
# Sequence (P09483 whole entry): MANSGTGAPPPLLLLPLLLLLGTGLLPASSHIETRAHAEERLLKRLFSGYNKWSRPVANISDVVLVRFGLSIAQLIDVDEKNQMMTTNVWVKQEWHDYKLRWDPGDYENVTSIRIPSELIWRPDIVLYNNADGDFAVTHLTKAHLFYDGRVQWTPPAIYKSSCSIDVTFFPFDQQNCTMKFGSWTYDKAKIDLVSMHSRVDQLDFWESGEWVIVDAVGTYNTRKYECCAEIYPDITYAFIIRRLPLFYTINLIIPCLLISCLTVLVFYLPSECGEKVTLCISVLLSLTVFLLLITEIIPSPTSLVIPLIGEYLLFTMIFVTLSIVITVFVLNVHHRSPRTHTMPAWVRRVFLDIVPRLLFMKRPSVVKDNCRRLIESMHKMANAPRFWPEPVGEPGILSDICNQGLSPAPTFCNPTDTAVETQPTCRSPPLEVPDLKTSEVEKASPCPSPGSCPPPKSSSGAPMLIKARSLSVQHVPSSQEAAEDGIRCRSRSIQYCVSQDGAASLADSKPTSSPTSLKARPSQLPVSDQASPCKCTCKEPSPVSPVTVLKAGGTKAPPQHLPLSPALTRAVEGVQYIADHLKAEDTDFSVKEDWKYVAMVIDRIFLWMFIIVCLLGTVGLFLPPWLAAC
row,SMILES,Ki [pM]
1,Fc1ncc(C2CC3CCC2N3)cc1-c1ccccc1 (centres undefined) [NSC_45263762],240
2,COc1cccc(-c2cc(C3CC4CCC3N4)cnc2F)c1 (racemic) [CAS_45266054],120
3,Nc1cccc(-c2cc(C3CC4CCC3N4)cnc2F)c1 (racemic) [CAS_45263775],100
4,c1cncc(C2CC3CCC2N3)c1 (centres undefined) [2-(pyridin-3-yl)-7-aza-bicyclo[2.2.1]heptane],20
